Columns and labels:
[1] = molecular target: T1, human cloned CHRM4 receptor (M4_CHO cells) (Homo sapiens, UniProt P08173); experiment: CHRM4 Ca++ Flux Assay (agonist mode, FDSS 7000EX); type: cell-based; details: for M4 FDSS PA: Percent Activity; for EC50: geometric mean if tested more than once, read-out: M4 FDSS EC50
T1 construct: expressed in transfected cells; host or cells: CHO-K1
T1 sequence (P08173 1-479): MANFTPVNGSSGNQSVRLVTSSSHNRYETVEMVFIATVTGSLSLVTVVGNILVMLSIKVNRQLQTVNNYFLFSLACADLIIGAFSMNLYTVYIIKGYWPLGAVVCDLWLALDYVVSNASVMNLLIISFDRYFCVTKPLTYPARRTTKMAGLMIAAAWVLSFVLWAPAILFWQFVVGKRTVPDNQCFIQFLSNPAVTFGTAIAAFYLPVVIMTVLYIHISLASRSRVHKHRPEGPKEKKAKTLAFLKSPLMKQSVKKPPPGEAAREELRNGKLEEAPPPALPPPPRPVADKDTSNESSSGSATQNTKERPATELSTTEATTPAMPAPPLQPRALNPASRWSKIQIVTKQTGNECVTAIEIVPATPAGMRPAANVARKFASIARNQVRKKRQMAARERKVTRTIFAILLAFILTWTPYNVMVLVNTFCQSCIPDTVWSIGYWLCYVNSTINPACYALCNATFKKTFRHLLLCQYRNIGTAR
Procedure: (§1) The above examples were characterized by measuring the intracellular mobilization of Ca++ ions caused by signaling events mediated by the receptor. The Intra-cellular Calcium flux levels were captured by the highly sensitive Ca++ indicator, Calcium Assay Kit (BD Biosciences, Catalog Number 640178). The fluorescent activity from all receptors were monitored by the fluorescent imager, FDSS 7000EX (Hamamatsu) over a span of 3 minutes.
CHO-K1 cells stably expressing the human cloned CHRM4 receptor (M4_CHO cells) were grown and maintained in a monolayer culture with F12/HAM (Life Technologies) supplemented with 10% Fetal Bovine Serum, 1× Pen-Strep, and 0.4 mg/mL Geneticin in a humidified atmosphere (5% CO2) at 37° C. The cultures were grown to 80-90% confluency in T150 flasks (Corning) and washed with 1×DPBS then lifted with 0.05% Trypsin (Life Technologies). The cells were harvested in growth media then spun (1K rpm, 3 minutes) and cryopreserved using Recovery Cell Culture Freezing Media (Gibco Technologies). Cells were stored in liquid nitrogen and thawed a day before the assay.
Prior to the day of the assay, stable M4_CHO cells were thawed and plated on 384 well black walled clear bottom TC treated plates (Greiner Cat #781091) at 12K cells/well using F12/HAM Media supplemented with 10% FBS (Life Technologies) and kept overnight in a humidified atmosphere (5% CO2) at 37° C. The next day, cells were loaded with […] Ca^++ dye (BD Biosciences) using Loading Buffer (HBSS +Ca/+Mg, 20 mM HEPES, 2.5 mM Probenecid) and placed back in cell incubator for a minimum of 1 hour. After incubation, the dye was replaced with 45 μL Assay Buffer (HBSS −Ca/−Mg, 20 mM HEPES, 2.5 mM Probenecid) supplemented with 20 μM ATP (Sigma Aldrich) and kept at room temperature in the dark for 60 minutes before running on a cell imager. The FDSS 7000EX (Hamamatsu) was used to capture Ca^++ traces for a span of 3 minutes from cells treated with 11 point dose of compound in triplicate in order to generate dose response curves in agonist mode. All compounds were serially diluted in DMSO then prepared in Assay Buffer for Ca^++ flux studies. The dose response curves were generated from the average of triplicate wells obtained from each data point and used a non-linear regression of four parameter dose response algorithm. The Percent Activity (PA) was measured to EC100 of Carbachol.

[2] = molecular target: T2, Cloned human M1 receptor (CHRM1) stably expressed in HEK293 cells (Homo sapiens, UniProt P11229); experiment: CHRM1 Ca++ Flux Assay (agonist mode, FDSS 7000EX); type: cell-based; details: for M1 FDSS PA: Percent Activity; for EC50: geometric mean if tested more than once
T2 construct: expressed in transfected cells; host or cells: HEK293
T2 sequence (P11229 1-460): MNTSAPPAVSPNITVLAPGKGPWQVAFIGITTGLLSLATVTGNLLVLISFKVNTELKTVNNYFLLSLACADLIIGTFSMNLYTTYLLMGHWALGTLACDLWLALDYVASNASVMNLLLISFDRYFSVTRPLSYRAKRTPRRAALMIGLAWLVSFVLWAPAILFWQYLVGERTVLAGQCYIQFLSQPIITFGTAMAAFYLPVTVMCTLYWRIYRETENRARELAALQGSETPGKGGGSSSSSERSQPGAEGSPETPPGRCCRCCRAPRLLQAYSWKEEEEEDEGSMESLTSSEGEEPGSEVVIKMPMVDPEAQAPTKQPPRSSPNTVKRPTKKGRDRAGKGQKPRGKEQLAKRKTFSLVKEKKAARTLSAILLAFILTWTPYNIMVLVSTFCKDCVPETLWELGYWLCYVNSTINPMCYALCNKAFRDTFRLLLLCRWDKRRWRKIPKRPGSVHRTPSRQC
Procedure: as §1
Cloned human M1 receptor (CHRM1) was stably expressed in HEK293 cells and were grown and maintained in a monolayer culture with DMEM/High Glucose (Life Technologies) supplemented with 10% Fetal Bovine Serum, 1× Pen-Strep, and 0.5 mg/mL Geneticin in a humidified atmosphere (5% CO2) at 37° C. The cultures were grown to 90% confluency in T150 flasks (Corning) and washed with 1×DPBS and lifted with 0.05% Trypsin (Life Technologies). The cells were then spun (1K rpm, 3 minutes) and frozen using Recovery Cell Culture Freezing Media (Gibco Technologies). Cells were stored in liquid nitrogen and thawed a day before the assay.
Prior to the day of the assay, stable HEK293 M1 cells were thawed and plated on 384 well black walled clear bottom TC treated plates (Greiner Cat #781091) at 25K cells/well with DMEM/High Glucose supplemented with 10% FBS (Hyclone) Pen-Strep (Life Technologies) and kept overnight in a humidified atmosphere (5% CO2) at 37° C. The following day, cells were loaded with 20 uL Ca^++ dye (BD Biosciences) using Loading Buffer (HBSS +Ca/+Mg, 20 mM HEPES) and placed back in cell incubator for a minimum of 1 hour. The dye was replaced with 45 μL Assay Buffer (HBSS −Ca/−Mg, 20 mM HEPES) and kept at room temperature prior to running on cell imager. Compounds were prepared in Assay Buffer and 5 uL was added to the cells. The FDSS 7000EX (Hamamatsu) was used to acquire Ca++ traces for 3 minutes from cells treated with 11 point dose in triplicate in order to generate dose response curves in agonist mode. All compounds were serially diluted in DMSO then prepared in Assay Buffer for Ca^++ flux studies. The dose response curves were generated from the average of triplicate wells obtained from each data point and used a non-linear regression of four parameter dose response algorithm. The Percent Activity (PA) was measured to EC100 of Carbachol.

SMILES | M4 FDSS PA [1] | EC50 [1] | M1 FDSS PA [2] | EC50 [2]
O=C(N1CC2(CC[C@@H](N3CCC(c4ccccc4OCC4CC4)CC3)C2)C1)C1(F)CC1 (single isomer, unassigned) [Example 7O, (R)-(6-(4-(2-(cyclopropylmethoxy)phenyl)piperidin-1-yl)-2-azaspiro[3.4]octan-2-yl)(1-fluorocyclopropyl)methanone or (R)-(6-(4-(2-(cyclopropylmethoxy)phenyl)piperidin-1-yl)-2-azaspiro[3.4]octan-2-yl)(1-fluorocyclopropyl)methanone] | 42% | 9 nM | 57% | 37 nM
O=C1CCCN1CCOc1ccccc1C1CCN([C@@H]2CCC3(C2)CN(C(=O)C2(F)CC2)C3)CC1.O=CO (single isomer, unassigned) [Example 7P, (R)-1-(2-(2-(1-(2-(1-fluorocyclopropane-1-carbonyl)-2-azaspiro[3.4]octan-6-yl)piperidin-4-yl)phenoxy)ethyl)pyrrolidin-2-one formate salt or (S)-1-(2-(2-(1-(2-(1-fluorocyclopropane-1-carbonyl)-2-azaspiro[3.4]octan-6-yl)piperidin-4-yl)phenoxy)ethyl)pyrrolidin-2-one formate salt] | 49% | 1 nM | 46% | 29 nM
O=C(N1CC2(CC[C@@H](N3CCC(c4ccccc4OCC4CCOCC4)CC3)C2)C1)C1(F)CC1 (single isomer, unassigned) [Example 7Q, (R)-(1-fluorocyclopropyl)(6-(4-(2-((tetrahydro-2H-pyran-4-yl)methoxy)phenyl)piperidin-1-yl)-2-azaspiro[3.4]octan-2-yl)methanone or (S)-(1-fluorocyclopropyl)(6-(4-(2-((tetrahydro-2H-pyran-4-yl)methoxy)phenyl)piperidin-1-yl)-2-azaspiro[3.4]octan-2-yl)methanone] | 48% | 3 nM | 37% | 135 nM
Cc1nnc(COc2ccccc2C2CCN([C@@H]3CCC4(C3)CN(C(=O)C3(F)CC3)C4)CC2)s1 (single isomer, unassigned) [Example 7R, (R)-(1-fluorocyclopropyl)(6-(4-(2-((5-methyl-1,3,4-thiadiazol-2-yl)methoxy)phenyl)piperidin-1-yl)-2-azaspiro[3.4]octan-2-yl)methanone or (S)-(1-fluorocyclopropyl)(6-(4-(2-((5-methyl-1,3,4-thiadiazol-2-yl)methoxy)phenyl)piperidin-1-yl)-2-azaspiro[3.4]octan-2-yl)methanone] | 36% | 62 nM | 0% | > 25000 nM
CCOc1ccccc1C1CCN([C@@H]2CCC3(C2)CN(C(=O)C2(F)CC2)C3)CC1 (single isomer, unassigned) [Example 7S, (R)-(6-(4-(2-ethoxyphenyl)piperidin-1-yl)-2-azaspiro[3.4]octan-2-yl)(1-fluorocyclopropyl)methanone or (S)-(6-(4-(2-ethoxyphenyl)piperidin-1-yl)-2-azaspiro[3.4]octan-2-yl)(1-fluorocyclopropyl)methanone] | 26% | 2650 nM | 0% | > 25000 nM
O=C(N1CC2(CC[C@@H](N3CCC(c4ccccc4OCC4CC4)CC3)C2)C1)C1(F)CC1 (single isomer, unassigned) [Example 7T, (R)-(6-(4-(2-(cyclopropylmethoxy)phenyl)piperidin-1-yl)-2-azaspiro[3.4]octan-2-yl)(1-fluorocyclopropyl)methanone or (R)-(6-(4-(2-(cyclopropylmethoxy)phenyl)piperidin-1-yl)-2-azaspiro[3.4]octan-2-yl)(1-fluorocyclopropyl)methanone] | 5% | 12100 nM | 32% | 4350 nM
Cc1noc(C)c1COc1ccccc1C1CCN([C@@H]2CCC3(C2)CN(C(=O)C2(F)CC2)C3)CC1 (single isomer, unassigned) [Example 7U, (R)-(6-(4-(2-((3,5-dimethylisoxazol-4-yl)methoxy)phenyl)piperidin-1-yl)-2-azaspiro[3.4]octan-2-yl)(1-fluorocyclopropyl)methanone or (S)-(6-(4-(2-((3,5-dimethylisoxazol-4-yl)methoxy)phenyl)piperidin-1-yl)-2-azaspiro[3.4]octan-2-yl)(1-fluorocyclopropyl)methanone] | 1% | > 25000 nM | 0% | > 25000 nM
Cc1ncc(COc2ccccc2C2CCN([C@@H]3CCC4(C3)CN(C(=O)C3(F)CC3)C4)CC2)o1 (single isomer, unassigned) [Example 7V, (R)-(1-fluorocyclopropyl)(6-(4-(2-((2-methyloxazol-5-yl)methoxy)phenyl)piperidin-1-yl)-2-azaspiro[3.4]octan-2-yl)methanone or (S)-(1-fluorocyclopropyl)(6-(4-(2-((2-methyloxazol-5-yl)methoxy)phenyl)piperidin-1-yl)-2-azaspiro[3.4]octan-2-yl)methanone] | 23% | 353 nM | 18% | 2300 nM
